Source: patent US11400101B2, “Treatment of allergic rhinitis using a combination of mometasone and olopatadine” (GLENMARK SPECIALTY S.A., priority 2013, dated 2022)
Marks after values point to notes of the source that are not given here.

Key:
sneezing response = experiment: Sneezing response in ovalbumin induced rhinitis model (whole body plethysmography); assay type: in vivo, guinea pigs; conditions: for Inhibition of sneezing response (in words) / Number of Sneeze (0-50 min): MF 10 μg; for Percent inhibition of sneeze: MF 10 μg per animal, vs ovalbumin control; for Number of Sneeze (0-50 min): intranasal, ovalbumin challenged
Description: Male Dunkin Hartley guinea pigs were actively sensitized with a subcutaneous injection of 1.5 mg of ovalbumin and 20 mg of aluminum hydroxide gel on days 0 and 7. Guinea pigs were sensitized intranasally with 2% ovalbumin from days 14-17. On day 28, the animals were challenged with 6% ovalbumin intranasally. Mometasone furoate 10 μg was given intranasally 24 hours and 1 hour prior to the final ovalbumin challenge. Olopatadine hydrochloride was given intranasally 1 hour before the final ovalbumin challenge. The dosing volume was 40 μl/animal. The saline control group and ovalbumin control group received vehicle (40 μl, 0.1% Tween 80 in distilled water). Sneezing response was determined by using whole body plethysmography (Buxco Research Systems, USA) for 50 minutes after final saline or ovalbumin challenge. The procedure in Example 1 was repeated except 120 μg of olopatadine hydrochloride (based on the equivalent weight of olopatadine free base) was used. The animal groups in Table 3 below were used during this experiment. Compound administration was performed as in Example 1, except the dosing volume was 60 μl/animal. The saline control group and ovalbumin control group received vehicle (60 μl, 0.1% Tween 80 in distilled water). In vivo evaluations were performed as in Example 1.

[1] = system: total cells and eosinophils in nasal lavage; experiment: Nasal lavage total cell count and eosinophils in ovalbumin induced rhinitis model; assay type: in vivo, guinea pigs; conditions: for Inhibition of total cell and eosinophils in nasal lavage (in words): MF 10 μg; for % inhibition of eosinophils / Percent inhibition of total cell count / Eosinophils × 10^5/ml nasal lavage / Total cell count × 10^5/ml nasal lavage: MF 10 μg per animal
Description: Male Dunkin Hartley guinea pigs were actively sensitized with a subcutaneous injection of 1.5 mg of ovalbumin and 20 mg of aluminum hydroxide gel on days 0 and 7. Guinea pigs were sensitized intranasally with 2% ovalbumin from days 14-17. On day 28, the animals were challenged with 6% ovalbumin intranasally. Mometasone furoate 10 μg was given intranasally 24 hours and 1 hour prior to the final ovalbumin challenge. Olopatadine hydrochloride was given intranasally 1 hour before the final ovalbumin challenge. The dosing volume was 40 μl/animal. The saline control group and ovalbumin control group received vehicle (40 μl, 0.1% Tween 80 in distilled water). Nasal lavage was performed at 4 hours after challenge of animals with saline or ovalbumin on day 28. Animals were anesthetized with an overdose of urethane, the trachea was exposed and nasal lavage was performed using 2 mL pre-warmed normal saline. The collected nasal lavage was taken for total cell count using a hemocytometer. The nasal lavage was centrifuged, and the cell pellet resuspended in 15 μL guinea pig serum and used for preparation of smears. Slides were stained with Leishman's stain and a differential cell count of 100 cells based on standard morphology was performed manually. The total number of eosinophils in each nasal lavage sample was calculated using the formula: [formula] Percent inhibition of eosinophils was calculated using the following formula: The procedure in Example 1 was repeated except 120 μg of olopatadine hydrochloride (based on the equivalent weight of olopatadine free base) was used. The animal groups in Table 3 below were used during this experiment. Compound administration was performed as in Example 1, except the dosing volume was 60 μl/animal. The saline control group and ovalbumin control group received vehicle (60 μl, 0.1% Tween 80 in distilled water). In vivo evaluations were performed as in Example 1.

[2] = Plasma pharmacokinetics of TP-1 in the Phase III study, day 1 and day 8 (steady state); assay type: in vivo, human; conditions: patients receiving TP-1 twice daily
Text: This study consisted of four visits to the study site. After the initial screening visit (Visit 1), subjects who met all study selection criteria were required to undergo a single-blind placebo run-in period for 7-10 days. Following the completion of the run-in period, eligible subjects meeting the randomization criteria were enrolled and randomized to one of the four treatment arms. Subjects were dispensed medication as per the randomization list. Randomized subjects were required to undergo a 2 week (14 days) treatment period as per the protocol to assess the efficacy and safety of the assigned treatment. Subjects were instructed to record the symptom scores in a symptom assessment diary. They were also scheduled to have at least two blood samples for PK assessment during the treatment period.
• Change from baseline in average AM and PM subject-reported 12-hour rTNSS (reflective TNSS) over the 14-day treatment period. Secondary Endpoints • Change from baseline in average AM and PM subject-reported 12-hour iTNSS (instantaneous TNSS) over the 14 day treatment period. • Change from baseline in average AM and PM subject-reported 12-hour rTOSS (reflective TOSS) over the 14-day treatment period. • Onset of action for each treatment are assessed by comparing the change from baseline in post-treatment iTNSS between each active treatment and placebo at defined time points (prior to first dose (pre-dose), 15 min, 30 min, 45 min, 60 min, 90 min, 120 min, 150 min, 180 min, 210 min, and 240 min) after the first study treatment for 4 hours. • Change from baseline in the overall Rhinoconjunctivitis Quality of Life questionnaire (RQLQ)—Standardized Activities (RQLQ(S)) score on Day 15 (Visit 4) for the Full Analysis Set (FAS). Pharmacokinetic Endpoints • Plasma PK: Maximum plasma concentration (Cmax), time to attain Cmax (Tmax), and area under the plasma concentration-time curve over the dosing interval (AUCtau) will be estimated for mometasone furoate and olopatadine on Day 1 and Day 8 based on the pharmacokinetic analysis set (PKAS). Tertiary Efficacy Endpoints Nasal Symptoms: • Change from baseline in AM subject-reported rTNSS over the 14-day treatment period. • Change from baseline in AM subject-reported iTNSS over the 14-day treatment period. • Change from baseline in PM subject-reported rTNSS over the 14-day treatment period. • Change from baseline in PM subject-reported iTNSS over the 14-day treatment period. • Change from baseline in subject-reported reflective individual nasal symptoms over the 14-day treatment period (AM, PM and average of AM and PM). • Change from baseline in subject-reported instantaneous individual nasal symptoms over the 14-day treatment period (AM, PM and average of AM and PM). • Change from baseline in average AM and PM subject-reported rTNSS and iTNSS for each day. • Change from baseline in AM subject-reported rTNSS and iTNSS for each day. • Change from baseline in PM subject-reported rTNSS and iTNSS for each day. […]

[3] = Pharmacokinetics of mometasone furoate, single-dose three-period cross-over study, Example 13; assay type: in vivo, human; conditions: single dose nasal spray
Description: The pharmacokinetics of mometasone furoate in a fixed dose combination of mometasone furoate and olopatadine hydrochloride nasal spray was evaluated in a clinical trial. The clinical trial was a randomized, single-center, single-dose, open-label, three-period, six-sequence, cross-over study to evaluate three treatments administered by nasal spray. The three treatments included a combination of mometasone furoate and olopatadine hydrochloride nasal spray, mometasone furoate nasal spray and Nasonex® nasal spray. […] The study consisted of a screening visit, 3 single-dose treatment periods with washout periods of 7 to 14 days between dosing in each treatment period, an early withdrawal visit if applicable, and a follow-up telephone call (or visit) 1 to 7 days after completing the third treatment period. A total of 30 subjects were randomized to 1 of 6 treatment sequences and received at least 1 dose of study drug. All 30 subjects were included in the safety analysis set and the pharmacokinetic subset. All but 2 subjects completed the study per protocol.

[4] = Example 1, OH 50 μg, 4 hours after challenge

Mometasone furoate AUCtau, Geo Mean ([2]; Day 1): 0.02616 ng·h/mL | Mometasone furoate AUCtau, Mean ([2]; Day 1): 0.02856 ng·h/mL | Mometasone furoate AUCtau, Min-Max ([2]; Day 1): 0.01211 to 0.07254 ng·h/mL | Mometasone furoate Cmax, Geo Mean ([2]; Day 1): 6.27 pg/mL | Mometasone furoate Cmax, Mean ([2]; Day 1): 6.78 pg/mL | Mometasone furoate Cmax, Min-Max ([2]; Day 1): 2.67 to 12.80 pg/mL | Mometasone furoate Tmax, Median ([2]; Day 1): 1.00 h | Mometasone furoate AUCtau, Geo Mean ([2]; Day 8): 0.05267 ng·h/mL | Mometasone furoate AUCtau, Mean ([2]; Day 8): 0.0584 ng·h/mL | Mometasone furoate AUCtau, Min-Max ([2]; Day 8): 0.02568 to 0.12405 ng·h/mL | Mometasone furoate Cmax, Geo Mean ([2]; Day 8): 9.17 pg/mL | Mometasone furoate Cmax, Mean ([2]; Day 8): 9.92 pg/mL | Mometasone furoate Cmax, Min-Max ([2]; Day 8): 3.58 to 16.10 pg/mL | Mometasone furoate Tmax, Median ([2]; Day 8): 1.00 h | Last time point until which quantifiable concentrations were observed [3]: 72 h
SMILES: C[C@@H]1C[C@H]2[C@@H]3CCC4=CC(=O)C=C[C@]4(C)[C@@]3(Cl)[C@@H](O)C[C@]2(C)[C@@]1(OC(=O)c1ccco1)C(=O)CCl [Mometasone Furoate, Mometasone furoate]
Inhibition of sneezing response (in words) (sneezing response; Example 1, OH 50 μg): not effective | Percent inhibition of sneeze (sneezing response; Example 1, OH 50 μg): 15% | Number of Sneeze (0-50 min) (sneezing response; Example 1, per animal: OH 50 μg, combination 50 (OH) & 10 (MF)): 18.83 | Inhibition of sneezing response (in words) (sneezing response; Example 2, OH 120 μg): not effective | Percent inhibition of sneeze (sneezing response; Example 2, OH 120 μg): −5% | Number of Sneeze (0-50 min) (sneezing response; Example 2, per animal: OH 120 μg, combination 120 (OH) & 10 (MF)): 37.33 | Inhibition of total cell and eosinophils in nasal lavage (in words) ([1]; Example 1, OH 50 μg): significant inhibition | % inhibition of eosinophils ([1]; Example 1, OH 50 μg): 46% | Percent inhibition of total cell count ([1]; Example 1, OH 50 μg): 46% | Eosinophils × 10^5/ml nasal lavage [1, 4]: 2.00* × 10^5/ml | Total cell count × 10^5/ml nasal lavage [1, 4]: 3.90* × 10^5/ml | Inhibition of total cell and eosinophils in nasal lavage (in words) ([1]; Example 2, OH 120 μg): significant inhibition | % inhibition of eosinophils ([1]; Example 2, OH 120 μg): 20% | Eosinophils × 10^5/ml nasal lavage ([1]; Example 2, OH 120 μg): 2.69 × 10^5/ml | Percent inhibition of total cell count ([1]; Example 2, OH 120 μg): 30% | Total cell count × 10^5/ml nasal lavage ([1]; Example 2, OH 120 μg): 4.96 × 10^5/ml
